We go through 103 molecules from the pKa sets of Baltruschat and Czodrowski (2020).

As usually defined, the pKa is the pH at which an ionisable group is half protonated. The low end stands for a group that gives up its proton readily, the high end for a group that holds its proton tightly.

The structures appear in SMILES notation. Where a SMILES comes first, the peptide text is derived from it.

For one data set the following is noted: acidic group.
Molecule `CC(C(=O)O)C(C#N)c1ccccc1` (stereo not drawn) had a pKa of 3.7.
Still for that read-out and setting: the figure for `Cc1ccc(Sc2ccc([N+](=O)[O-])cc2C(=O)O)cc1` is 2.84.
Molecule `CCC(Oc1ccccc1C)C(=O)O` (stereo not drawn) showed a pKa of 3.43.
On the same count and under the same terms, the figure for `NC(=O)[C@H]1CC(=O)N[C@@H]1C(=O)O` is 3.
The same measure, in the same setting: the same measure for `O=C([O-])/C=C/C(=O)CC(=O)CC(=O)[O-]`: 8.4; for `O=P(O)(C1CCCCC1)C1CCCCC1`: 3.47; for `O=C([O-])CCCC(=O)NOCc1ccccc1`: 10.2.
`CNC(=O)CS(=O)(=O)NC(N)=O` yielded a pKa of 4.89.
In turn, `[NH3+]CC(=O)O` displayed a pKa of 2.36.
The molecule `O=S(=O)(NCc1ccccc1)c1ccc(Br)cc1` gave a pKa of 10.7.
With `CC(C)SCC(=O)O`, the pKa came to 3.72.
On the same count and under the same terms, the same measure for `O=C(Cc1ccccc1)c1cc[n+](Cc2cccc([N+](=O)[O-])c2)cc1`: 8.68; for `CCOC(=O)C(Cc1ccc(C)cc1)C(C)=O` (stereo not drawn): 11.9; for `Nc1nc([S-])c2[nH]cnc2n1`: 11.6.
Same read-out and setting: the same measure for `Cc1cc(O)n(C2CC[NH+](C)CC2)n1`: 6.63.
On the same count and under the same terms, the figure for `O=C(CC(=O)c1ccccc1)Nc1ccccc1` is 9.54.
As for `C/C(=N/O)c1cc(C)c(C)cc1O`, the pKa came out at 8.2.
On the same count and under the same terms, the figure for `Cn1nnnc1CC(=O)O` is 2.83; for `Nc1nc(O)[n+]([C@@H]2C[C@@H](O)[C@H](CO)O2)cc1CO` it is 3.55.
On the same count and under the same terms, the same measure for `[NH-]S(=O)(=O)c1nnc(Nc2ccccc2)s1`: 11.1.
`O=C1Cc2c1cc([N+](=O)[O-])c(O)c2Br` registered a pKa of 2.88.
Still for that read-out and setting: the figure for `Nc1nnn[nH]1` is 5.98.
On to `Cc1ccc(Br)cc1C(=O)O`, for which the pKa worked out at 3.58.
For the molecule `N#CC(C#N)=NNc1cccc(Cl)c1Cl`, the pKa stood at 5.15.
Same read-out and setting: the same measure for `C/C(=C\c1ccccc1)CC(=O)O`: 5.35; for `Oc1cccc(O)c1`: 9.56.
The same measure, in the same setting: the same measure for `CO`: 15.5; for `Cc1cc(O)c(C(C)C)cc1C`: 10.8; for `Cc1nccc2c1[nH]c1ccccc12`: 14.5.
On the same count and under the same terms, the figure for `C[NH+](C)CCCCCCCCNC(=O)/C=N/O` is 8.97; for `O=c1[nH]c(=S)c2[nH]cnc2[nH]1` it is 6.2.
Consider `O=S(O)c1ccccc1`, for which the pKa turned out to be 1.72.
The same measure, in the same setting: the figure for `Cc1ccccc1NC(=S)c1ccccc1` is 10.2; for `O=C(O)/C=C/c1ccc2c(c1)OCO2` it is 4.6.
`O=C1CCC(=O)C1=O` had a pKa of 8.48.
Regarding `COc1ccc(C(=O)O)c(C)c1`, the pKa stood at 4.54.
The same measure, in the same setting: the figure for `O=NNc1nc([N+](=O)[O-])nn1-c1ccccc1` is 3.33; for `O=S(O)CCCCc1ccccc1` it is 2.23; for `Cc1ccc(O)cc1C(=O)O` it is 3.92.
`CC1(C)CC(=O)C(C=O)C(=O)C1` showed a pKa of 3.65.
On the same count and under the same terms, the same measure for `O=S(=O)([N-]c1ncccn1)c1ccc(O)cc1`: 9.
Still for that read-out and setting: the same measure for `Brc1cn[nH]c1`: 12.7.
On the same count and under the same terms, the same measure for `Cc1ccc(C(=O)O)c(Cl)c1`: 3.27.
`CC(=O)NS(=O)(=O)c1ccc(C)cc1` had a pKa of 4.8.

The data set is the same for the next values; noted with them: basic group.
With `COCCCCNc1ccccc1`, the pKa is 4.6.
For the molecule `N=C(c1ccccc1)c1ccccc1Cl`, the pKa stood at 5.59.
Turning to `C[NH+](C)CCNCCN`, the pKa came to 9.12.
Same read-out and setting: the same measure for `CC(C)N/C=[NH+]/c1ccc(-c2cn(C)cn2)cc1`: 5.39; for `Cc1n[nH]c(C)c1C`: 4.82; for `C[n+]1cnc2nc([O-])cnc2c1[O-]`: 6.19.
`CCN1[C@H](C)[C@@H]1C` (stereo partly drawn): the pKa came out at 8.57.
Still for that read-out and setting: the same measure for `C=CC(C)(CC)N(C)C(C)C` (stereo not drawn): 11.3.
The same measure, in the same setting: the figure for `CC1[C@H](N)[C@H]1[NH3+]` (stereo partly drawn) is 5.9; for `CCCNC(C)C(=O)[O-]` (stereo not drawn) it is 10.2.
Same read-out and setting: the figure for `Nc1cccc([N+](=O)[O-])c1` is 2.6; for `COCCCN` it is 9.92.
For the molecule `NCCCC#CC#CCCC(=O)[O-]`, the pKa worked out at 9.94.
Same read-out and setting: the same measure for `[S-]c1ncccn1`: 7.2; for `CN(C)CCNCC[NH+](C)C`: 8.96.
On the same count and under the same terms, the same measure for `Cc1ccc([N+](=O)[O-])c2c(NCCC[NH+](C)C)c3ccccc3nc12`: 6.29; for `CCOC(=O)CCN`: 9.13.
Still for that read-out and setting: the figure for `Nc1ccnc2cc(Cl)ccc12` is 8.22; for `CN(C)c1ccc2cc3ccc([NH+](C)C)cc3[nH+]c2c1` it is -3.15; for `C[NH+](C)C[C@H]1[C@@H]2CC[C@@](C)([C@H]1N)C2(C)C` it is 6.59.
As to `Cc1ccc2ccc(C)nc2c1`, the pKa came to 5.01.
Same read-out and setting: the figure for `C=C(C(=O)O[C@H]1C[C@@H]2[C@@H]3O[C@@H]3[C@H](C1)N2C)c1ccccc1` is 7.72; for `CCC(=O)C(CCN(C)C)(c1ccccc1)c1ccccc1` it is 9.23.
Same read-out and setting: the figure for `NCC(=O)N1CCC[C@H]1C(=O)[O-]` (H-Gly-Pro-OH) is 8.49; for `Nc1nc([S-])c2[nH]cnc2n1` it is 8.2.
Same read-out and setting: the same measure for `c1ccc2c(c1)cnc1ccccc12`: 4.58; for `O=C(CCNCCC(=O)c1ccccc1)c1ccccc1`: 8.69.
Molecule `CCCCNCC(=O)[O-]` showed a pKa of 10.2.
Same read-out and setting: the same measure for `NNC(=O)[C@@H](N)Cc1ccccc1`: 7.06; for `CCCCCCN(CCO)CC(O)CC` (stereo not drawn): 9.1.
Still for that read-out and setting: the same measure for `Cc1c[nH]c(C)c1C`: 3.94; for `NCC(=O)[O-]`: 9.65.
The same measure, in the same setting: the same measure for `C=C(C)C(=O)OC(C)CN(C)C` (stereo not drawn): 7.96; for `CCCCCCCCCCCCN(CCO)CC(C)O` (stereo not drawn): 6.5; for `CC(=O)Nc1ccc(C2CCC[NH+]2C)cn1` (stereo not drawn): 2.2.
`CCCN(C)N(C)CCC` displayed a pKa of 7.05.
As to `Nc1nnn[nH]1`, the pKa was determined as 1.81.
Still for that read-out and setting: the figure for `N#CC(C#N)=NNc1cccc(Cl)c1Cl` is -0.71; for `CCNc1ccccc1` it is 5.29; for `COc1cc(S(C)=O)ccc1-c1cn2cccnc2n1` (stereo not drawn) it is 3.7.
For `C/C(=C(\CCO)SSCCC(C)C)N(C=O)Cc1cnc(C)nc1N`, the pKa is 5.58.
With `C=C(C)C(=O)NC(C)CN(C)C` (stereo not drawn), the pKa worked out at 8.51.
Same read-out and setting: the same measure for `CN(CCN)CC[NH+](C)C`: 9.23; for `Nc1ccc2[nH]c(Cc3ccccc3)[nH+]c2c1`: 3.3.
Same read-out and setting: the figure for `Cc1cccc(C)c1/C(=N/CCCN(C)C)c1ccccc1` is 8.7; for `O=C(NNc1ccc(Br)cc1)c1ccncc1` it is 4.03; for `CC(C)CCSC(=N)c1ccccc1` it is 8.43.
Regarding `C[NH+](C)c1ccc(/C=C/c2ccncc2)cc1`, the pKa came out at 3.42.
Regarding `CC(N)CCCc1ccc(O)cc1` (stereo not drawn), the pKa amounted to 9.4.
Same read-out and setting: the figure for `CC1CCCCC1=N` (stereo not drawn) is 9.38; for `CC(=O)c1ccc(/N=N/c2c(N)n[nH]c2N)cc1` it is 3.32.
The same measure, in the same setting: the same measure for `Cc1nccc2c1[nH]c1ccccc12`: 6.55.
The same measure, in the same setting: the same measure for `COC(=O)c1cc(Br)c(=O)n(N)c1`: 2.4.
Turning to `O=c1[nH]c(=S)c2[nH]cnc2[nH]1`, the pKa worked out at 0.9.
The same measure, in the same setting: the same measure for `Nc1cccc(-c2ccccn2)n1`: 5.8; for `CNc1cnc2ccccc2n1`: 4.1.
Consider `C=C(C)[C@H]1CN[C@H](C(=O)[O-])[C@H]1CC(=O)OC`, for which the pKa amounted to 9.52.
On the same count and under the same terms, the figure for `O=[N+]([O-])c1ccc(/C=N/c2ncccn2)cc1` is 3.12; for `OCn1cnc2ccccc21` it is 5.44; for `CCCNc1c2ccccc2nc2cccc([N+](=O)[O-])c12` it is 7.2.
The same measure, in the same setting: the figure for `O=C([O-])CN1CCCCC1` is 10.3; for `[O-]c1ccccc1CN1CCCCC1` it is 11.
Still for that read-out and setting: the same measure for `O=[N+]([O-])c1ccc(-n2cnnn2)cc1`: -3.92; for `COc1c(N)cccc1C(=O)N[C@@H]1C[C@H]2CC[C@@H](C1)N2Cc1ccccc1`: 8.86.
